Here are results for twelve compounds from ChEMBL document CHEMBL1201862, “PubChem BioAssay data set” (2004).

Some test systems named below: NCI-H460; Hs-578T; DU-145; HCT-15; SK-MEL-2; 786-0; RPMI-8226; U-251; MDA-MB-435; A549; OVCAR-5; IGROV-1; SK-MEL-5; PC-3; NCI-H226; SF-268; CAKI-1; NCI-H522; K562; HL-60.
Test in all cases: inhibition of tumour cell growth, NCI panel, 48 h

The structures appear in SMILES notation.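 Where inhibition never reached the appropriate level, the endpoint shown equals the highest concentration tested. Otherwise, values were interpolated linearly from a five-concentration, 48-hour dose response in 96-well plates. GI50 = concentration required for 50% inhibition of growth.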 Active and inactive are the calls of the source. Cut-off read from the data, not from the text of the source: active = GI50 up to about 1.1 µM and inactive = higher.

Turning to `Oc1cc(/C=C/c2ccccc2)nc2cc3c(cc12)OCO3`, the GI50 is 3.1 µM (inactive) with NCI-H460; 3.78 µM (inactive) in the test on Hs-578T; 7.06 µM (inactive) in the test on DU-145; 3.01 µM in the test on HCT-15; 3.72 µM (inactive) in the test with SK-MEL-2; 3.32 µM (inactive) in the test on 786-0. Further, the GI50 is 0.724 µM (active) in the test on RPMI-8226; 2.52 µM (inactive) in the test with U-251; 1.98 µM (inactive) in the test with MDA-MB-435; 4.95 µM (inactive) in the test with A549; 3.54 µM (inactive) in the test on OVCAR-5; 4.56 µM (inactive) in the test on IGROV-1.

On to `CCNc1ccc2c(c1)C(=O)N(OS(C)(=O)=O)C2=O`, for which the GI50 in the test with NCI-H460 was > 100 µM (inactive); in the test with Hs-578T, > 100 µM (inactive); in the test with DU-145, > 100 µM (inactive); with SK-MEL-5, 41.2 µM (inactive); in the test on HCT-15, 36.1 µM; with SK-MEL-2, 65.6 µM (inactive). Besides, the GI50 with PC-3 was > 100 µM (inactive); in the test with 786-0, 34.1 µM (inactive); in the test on NCI-H226, 29 µM (inactive); in the test on SF-268, > 100 µM (inactive); in the test with RPMI-8226, 31.9 µM (inactive); with CAKI-1, 70 µM (inactive). Also, the GI50 was > 100 µM (inactive) with U-251, > 100 µM (inactive) in the test with MDA-MB-435, > 100 µM (inactive) with A549 and 16.4 µM (inactive) in the test with NCI-H522.

As to `CCOC(=O)c1c(SCCN2CCCCC2)n(-c2ccccc2)c(=S)n(-c2ccccc2)c1=O`, the GI50 was 33.9 µM (inactive) with NCI-H460; 26.1 µM (inactive) in the test with Hs-578T; 29.6 µM (inactive) in the test on DU-145; 15.6 µM (inactive) in the test with SK-MEL-5; 4.29 µM with HCT-15; > 100 µM (inactive) in the test on SK-MEL-2. The GI50 in the test on K562 is 3 µM (inactive); with PC-3 it was 14.6 µM (inactive); in the test on 786-0 it was 14.8 µM (inactive); in the test with NCI-H226, 12.3 µM (inactive); in the test on SF-268 it was 28.6 µM (inactive); in the test on RPMI-8226, 2.74 µM (inactive). In addition, the GI50 is 3.49 µM (inactive) in the test with HL-60; 28.6 µM (inactive) in the test on U-251; 16.3 µM (inactive) in the test on MDA-MB-435; > 54 µM (inactive) with A549; 16.7 µM (inactive) in the test on NCI-H522; > 100 µM (inactive) in the test with OVCAR-5. The GI50 with IGROV-1 was > 10 µM (inactive).

In the case of `COc1ccc(/C=N/NC(=O)C2=C(N)N(c3ccccc3)C(=C(C#N)C#N)S2)cc1`, the GI50 with NCI-H460 is > 100 µM (inactive); in the test with Hs-578T, > 100 µM (inactive); in the test with DU-145, > 100 µM (inactive); in the test with SK-MEL-5, > 100 µM (inactive); in the test on HCT-15 it was > 100 µM; with K562 it was > 100 µM (inactive). Moreover, the GI50 was > 100 µM (inactive) in the test with PC-3; 62.5 µM (inactive) in the test on 786-0; > 100 µM (inactive) in the test on NCI-H226; > 100 µM (inactive) with SF-268; > 100 µM (inactive) in the test with RPMI-8226; > 100 µM (inactive) in the test with HL-60. In addition, the GI50 is 63.8 µM (inactive) in the test on U-251; > 100 µM (inactive) with MDA-MB-435; > 100 µM (inactive) in the test with A549; > 100 µM (inactive) with NCI-H522; > 100 µM (inactive) with OVCAR-5; > 100 µM (inactive) with IGROV-1.

Take `O=C(Cc1ccccc1)NNc1nc(NNC(=O)c2ccncc2)nc(Nc2cccc(Cl)c2)n1`: the GI50 with NCI-H460 was > 10 µM (inactive); with Hs-578T, > 10 µM (inactive); with DU-145, > 10 µM (inactive); in the test with SK-MEL-5 it was > 10 µM (inactive); in the test on HCT-15, > 10 µM; in the test with K562, > 10 µM (inactive). Also, the GI50 with 786-0, in the test on SF-268, with RPMI-8226, in the test on HL-60, in the test on CAKI-1 and in the test on U-251 was > 10 µM (inactive) each time. In addition, the GI50 in the test with A549 and with IGROV-1 was > 10 µM (inactive) in each case.

In the case of `NS(=O)(=O)c1nnc(NS(=O)(=O)c2ccc(Cl)cc2)s1`, the GI50 is > 100 µM (inactive) in the test with NCI-H460; > 100 µM (inactive) in the test on Hs-578T; > 100 µM (inactive) in the test on DU-145; > 100 µM (inactive) in the test with SK-MEL-5; > 100 µM in the test on HCT-15; > 100 µM (inactive) in the test with SK-MEL-2. For the same compound, the GI50 in the test with K562, in the test with 786-0, in the test on NCI-H226, in the test on SF-268, with RPMI-8226 and with CAKI-1 was > 100 µM (inactive) in each case. For the same compound, the GI50 with U-251, in the test with MDA-MB-435, with A549, in the test on NCI-H522 and with OVCAR-5 was > 100 µM (inactive) in each case.

For `O=[N+]([O-])c1ccc(CSC2=C(c3ccc(Cl)cc3)S/C(=C3\SC(SCc4ccc([N+](=O)[O-])cc4)=C(c4ccc(Cl)cc4)S3)S2)cc1`, the GI50 with NCI-H460 was > 100 µM (inactive); in the test with Hs-578T, > 100 µM (inactive); in the test on DU-145 it was > 100 µM (inactive); with SK-MEL-5 it was > 100 µM (inactive); in the test on HCT-15, > 100 µM; with SK-MEL-2 it was > 100 µM (inactive). Moreover, the GI50 in the test with K562, in the test on PC-3, in the test with 786-0, in the test with NCI-H226, with SF-268 and in the test with CAKI-1 was > 100 µM (inactive) each time. The GI50 in the test on U-251, in the test with MDA-MB-435, in the test with A549, in the test on NCI-H522, in the test with OVCAR-5 and with IGROV-1 was > 100 µM (inactive) throughout.

In the case of `O=C1C=C(c2ccccc2)O/C1=C\C(=O)c1ccc(Cl)cc1`, the GI50 in the test with NCI-H460 is > 100 µM (inactive); in the test on Hs-578T, 21.9 µM (inactive); with DU-145, 43.6 µM (inactive); in the test with SK-MEL-5, 21.5 µM (inactive); in the test with HCT-15 it was 17.5 µM; in the test on K562, 22.2 µM (inactive). The GI50 in the test on PC-3 is 16.7 µM (inactive); in the test on 786-0, 14.3 µM (inactive); in the test with NCI-H226, 17.4 µM (inactive); in the test on SF-268, 20 µM (inactive); in the test on RPMI-8226, 16.7 µM (inactive); in the test with HL-60, 2.18 µM (inactive). Further, the GI50 in the test on CAKI-1 was 18.1 µM (inactive); in the test on U-251, 16.3 µM (inactive); in the test with MDA-MB-435 it was 15.8 µM (inactive); with NCI-H522, 20.7 µM (inactive); with OVCAR-5 it was 24.3 µM (inactive); with IGROV-1 it was 17.1 µM (inactive).

Turning to `Clc1ccc(-c2cn3c(nc4ccccc43)c(/C=C/c3ccco3)n2)cc1`, the GI50 in the test with NCI-H460 was 23.5 µM (inactive); in the test with Hs-578T it was 14.8 µM (inactive); in the test on DU-145, 75.7 µM (inactive); in the test with SK-MEL-5 it was 33.9 µM (inactive); with HCT-15 it was 57.5 µM; in the test on SK-MEL-2 it was 18.1 µM (inactive). Besides, the GI50 in the test with K562 was 29.8 µM (inactive); with 786-0, 30.3 µM (inactive); in the test with NCI-H226, > 100 µM (inactive); in the test with SF-268 it was 27.7 µM (inactive); in the test with RPMI-8226, 16.1 µM (inactive); with HL-60, 12.5 µM (inactive). In addition, the GI50 is 28.2 µM (inactive) in the test on U-251; 23.2 µM (inactive) with MDA-MB-435; 46.6 µM (inactive) in the test on A549; > 100 µM (inactive) in the test on OVCAR-5; 30.5 µM (inactive) in the test on IGROV-1.

For the compound `CCCCn1c2c(n(CCCC)c1=[Se])-c1c(n(CCCC)c(=[Se])n1CCCC)S[Se][Se]S2`, the GI50 is 7.6 µM (inactive) with NCI-H460; 18.7 µM (inactive) with Hs-578T; 25 µM (inactive) with DU-145; 16.6 µM (inactive) with SK-MEL-5; 13.7 µM with HCT-15; 18 µM (inactive) with SK-MEL-2. For the same compound, the GI50 in the test with K562 is 9.84 µM (inactive); in the test on PC-3, 14.9 µM (inactive); in the test with 786-0, 29.4 µM (inactive); in the test with NCI-H226, 6.52 µM (inactive); in the test with SF-268, 32.7 µM (inactive); with RPMI-8226, 16.8 µM (inactive). Besides, the GI50 was 5.3 µM (inactive) in the test on CAKI-1; 11.4 µM (inactive) with U-251; 49.9 µM (inactive) in the test on MDA-MB-435; 20.7 µM (inactive) with A549; 1.61 µM (inactive) in the test with NCI-H522; 20.7 µM (inactive) with OVCAR-5. Moreover, the GI50 with IGROV-1 was 7.1 µM (inactive).

As to `C/C(=C\COc1cc(O)c2c(c1)C(=O)c1cc(C)cc(O)c1C2=O)CCC1OC1(C)C` (stereo not given), the GI50 is 10.3 µM (inactive) in the test on NCI-H460; 24.1 µM (inactive) in the test with Hs-578T; > 100 µM (inactive) in the test on DU-145; 31.2 µM (inactive) in the test on SK-MEL-5; 84.3 µM in the test on HCT-15; > 100 µM (inactive) in the test on SK-MEL-2. The GI50 in the test on K562 is 83.8 µM (inactive); in the test on PC-3, > 100 µM (inactive); with 786-0, 58.2 µM (inactive); with SF-268 it was 42.3 µM (inactive); in the test with RPMI-8226, 93.8 µM (inactive); in the test on HL-60 it was > 10 µM (inactive). Also, the GI50 in the test on CAKI-1 is 21 µM (inactive); with U-251 it was 63.8 µM (inactive); in the test on MDA-MB-435 it was > 100 µM (inactive); in the test on A549, 85.5 µM (inactive); in the test on NCI-H522, 69.8 µM (inactive); in the test with OVCAR-5 it was > 100 µM (inactive). The GI50 with IGROV-1 was 68.9 µM (inactive).

As for `CC1(C)CCC[C@]2(C)[C@H]3[C@H](C#N)c4cc(O)c(O)cc4O[C@@]3(C)CC[C@@H]12`, the GI50 was > 10 µM (inactive) in the test with NCI-H460; > 10 µM (inactive) with Hs-578T; > 10 µM (inactive) in the test with DU-145; > 10 µM (inactive) in the test with SK-MEL-5; > 10 µM in the test on HCT-15; > 10 µM (inactive) with SK-MEL-2. For the same compound, the GI50 with K562, in the test on PC-3, in the test on 786-0, with NCI-H226, with SF-268 and with RPMI-8226 was > 10 µM (inactive) in each case. Moreover, the GI50 with HL-60, with CAKI-1, in the test with U-251, in the test with NCI-H522, with OVCAR-5 and with IGROV-1 was > 10 µM (inactive) in each case.
